From patent US9273028B2, “Heterocyclic tyrosine kinase inhibitors” (Biogen MA Inc., priority 2010, dated 2016)

Tests used:
Type in all cases: biochemical
[1] = target: T1, Lck (Homo sapiens, UniProt P06239); assay: Lck kinase selectivity assay (Example 142 procedure, Table 3 modifications); details: ATP 5 μM
T1 construct: purchased Carna Bioscience 08-170
Method: (§1) The purpose of the Tec in vitro assay is to determine compound potency against Tec through the measurement of IC50. Compound inhibition is measured after monitoring the amount of phosphorylation of a fluorescein-labeled polyGT peptide (Invitrogen PV3610) in the presence of active Tec enzyme (Carna Biosciences 08-182), ATP, and inhibitor. The Tec kinase reaction was done in a black 96 well plate (costar 3694). For a typical assay, a 29 μL aliquot of a ATP/peptide master mix (final concentration; ATP 25 μM, polyGT 100 nM) in kinase buffer (10 mM Tris-HCl pH 7.5, 10 mM MgCl2, 200 μM Na3PO4, 5 mM DTT, 0.01% Triton X-100, and 0.2 mg/ml casein) is added to each well. Next, 1 μL of a 3-fold, 50× compound titration in 100% DMSO solvent is added, followed by adding 20 uL of Tec enzyme mix in 1× kinase buffer (with a final concentration of 0.125 nM). The assay is incubated for 15 minutes before being stopped with 5 μl, of a 220 mM EDTA solution. Aliquots (5 μL) of the kinase reaction are transferred to a low volume white 384 well plate (Corning 3674), and 5 μL of a 2× detection buffer (Invitrogen PV3574, with 2 nM Tb-PY20 antibody, Invitrogen PV3552) is added. The plate is covered and incubated for 45 minutes at room temperature. Time resolved fluorescence (TRF) on Molecular Devices M5 (332 nm excitation; 488 nm emission; 518 nm fluorescein emission) is measured.
(§2) Using the procedure described in Example 142, with the modifications shown in Table 3, selectivity for Itk, Txk, and Lck was measured.

[2] = target: T2, Itk (Homo sapiens, UniProt Q08881); assay: Itk kinase selectivity assay (Example 142 procedure, Table 3 modifications); details: ATP 10 μM
T2 construct: purchased Carna Bioscience 08-181
T2 sequence (Q08881 1-620): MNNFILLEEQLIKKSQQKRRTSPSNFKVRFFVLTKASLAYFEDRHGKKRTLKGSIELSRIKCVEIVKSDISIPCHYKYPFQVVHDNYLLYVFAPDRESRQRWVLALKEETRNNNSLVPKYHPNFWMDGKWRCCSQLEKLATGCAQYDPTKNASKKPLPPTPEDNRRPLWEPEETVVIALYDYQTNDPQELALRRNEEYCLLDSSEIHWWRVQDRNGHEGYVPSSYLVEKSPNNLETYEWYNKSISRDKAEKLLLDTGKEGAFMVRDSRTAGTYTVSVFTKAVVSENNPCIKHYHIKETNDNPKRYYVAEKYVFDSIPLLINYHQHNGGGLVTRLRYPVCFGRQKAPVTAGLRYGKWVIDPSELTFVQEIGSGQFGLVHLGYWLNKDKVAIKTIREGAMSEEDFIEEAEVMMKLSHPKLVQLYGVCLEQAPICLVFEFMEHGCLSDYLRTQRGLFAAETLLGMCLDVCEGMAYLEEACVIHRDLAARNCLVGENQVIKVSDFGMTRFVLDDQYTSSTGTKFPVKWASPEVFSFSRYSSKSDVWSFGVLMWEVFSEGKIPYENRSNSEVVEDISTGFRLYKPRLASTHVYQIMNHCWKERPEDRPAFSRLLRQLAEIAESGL
Method: as §1, §2

[3] = target: T3, Txk (Homo sapiens, UniProt P42681); assay: Txk kinase selectivity assay (Example 142 procedure, Table 3 modifications); details: ATP 100 μM
T3 construct: purchased Carna Bioscience 08-183
T3 sequence (P42681 1-527): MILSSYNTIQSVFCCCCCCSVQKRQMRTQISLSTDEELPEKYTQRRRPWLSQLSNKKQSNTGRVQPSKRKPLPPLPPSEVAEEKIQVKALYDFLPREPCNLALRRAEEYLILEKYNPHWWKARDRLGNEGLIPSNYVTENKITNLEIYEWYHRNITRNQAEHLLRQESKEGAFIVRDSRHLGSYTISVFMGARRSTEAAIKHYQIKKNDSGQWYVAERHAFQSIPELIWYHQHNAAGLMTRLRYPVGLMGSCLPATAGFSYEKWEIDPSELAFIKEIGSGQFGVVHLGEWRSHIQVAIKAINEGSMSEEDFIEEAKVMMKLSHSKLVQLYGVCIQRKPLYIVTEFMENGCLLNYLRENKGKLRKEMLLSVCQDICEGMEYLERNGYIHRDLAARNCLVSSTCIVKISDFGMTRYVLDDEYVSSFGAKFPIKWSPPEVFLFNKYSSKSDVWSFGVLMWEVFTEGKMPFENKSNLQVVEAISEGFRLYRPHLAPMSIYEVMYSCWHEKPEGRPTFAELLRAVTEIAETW
Method: as §1, §2

[4] = target: T4, Tec (Homo sapiens, UniProt P42680); assay: In vitro Tec kinase selectivity assay (Tec-POLYGT-LS); details: ATP 25 μM
T4 construct: purchased Carna Biosciences 08-182
T4 sequence (P42680 1-631): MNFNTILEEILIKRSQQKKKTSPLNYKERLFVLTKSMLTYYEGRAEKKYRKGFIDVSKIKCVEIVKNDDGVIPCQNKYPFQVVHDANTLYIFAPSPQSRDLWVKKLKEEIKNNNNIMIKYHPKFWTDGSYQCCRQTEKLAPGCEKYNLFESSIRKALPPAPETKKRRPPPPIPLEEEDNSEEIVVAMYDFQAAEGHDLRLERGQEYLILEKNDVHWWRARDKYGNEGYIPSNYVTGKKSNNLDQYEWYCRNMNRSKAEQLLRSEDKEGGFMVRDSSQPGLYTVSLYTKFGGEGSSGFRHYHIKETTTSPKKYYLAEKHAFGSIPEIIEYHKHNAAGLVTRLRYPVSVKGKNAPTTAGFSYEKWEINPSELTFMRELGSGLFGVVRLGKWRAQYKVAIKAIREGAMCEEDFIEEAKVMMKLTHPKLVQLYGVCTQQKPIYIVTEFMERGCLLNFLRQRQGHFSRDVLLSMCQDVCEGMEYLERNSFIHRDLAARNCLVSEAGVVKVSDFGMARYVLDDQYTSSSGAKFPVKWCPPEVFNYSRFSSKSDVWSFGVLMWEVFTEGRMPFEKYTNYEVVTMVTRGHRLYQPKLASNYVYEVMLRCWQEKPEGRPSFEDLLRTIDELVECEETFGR
Method: In Vitro Tec Kinase Selectivity Assay
as §1

[5] = target: T5, BTK (Homo sapiens, UniProt Q06187); assay: In vitro BTK kinase assay (BTK-POLYGAT-LS); details: IC50 (10 uM ATP)
T5 construct: purchased Upstate 14-552
T5 sequence (Q06187 whole entry): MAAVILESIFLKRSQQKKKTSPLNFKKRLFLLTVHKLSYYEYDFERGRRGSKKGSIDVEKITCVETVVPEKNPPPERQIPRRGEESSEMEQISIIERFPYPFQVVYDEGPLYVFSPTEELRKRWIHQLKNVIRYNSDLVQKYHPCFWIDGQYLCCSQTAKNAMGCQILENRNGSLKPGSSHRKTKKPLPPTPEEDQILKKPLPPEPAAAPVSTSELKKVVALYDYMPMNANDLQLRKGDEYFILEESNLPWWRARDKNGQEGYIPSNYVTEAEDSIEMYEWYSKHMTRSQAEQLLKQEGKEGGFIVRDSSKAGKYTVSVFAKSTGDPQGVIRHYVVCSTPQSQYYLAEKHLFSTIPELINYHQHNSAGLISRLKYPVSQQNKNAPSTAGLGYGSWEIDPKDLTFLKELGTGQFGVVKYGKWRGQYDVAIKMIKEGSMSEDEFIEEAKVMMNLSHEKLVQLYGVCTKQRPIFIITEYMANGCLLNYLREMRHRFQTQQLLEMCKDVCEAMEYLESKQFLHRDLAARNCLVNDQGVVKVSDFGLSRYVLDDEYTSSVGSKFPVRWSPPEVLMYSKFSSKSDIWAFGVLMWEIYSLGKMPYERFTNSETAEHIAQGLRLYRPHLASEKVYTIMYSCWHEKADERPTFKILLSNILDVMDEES
How it was run: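 Poly-GAT peptide at 100 nM with 10 μM ATP (final) in pH 7.5 Tris buffer containing MgCl2, DTT, Triton X-100 and 0.2 mg/ml casein.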

T1 sequence (P06239 whole entry): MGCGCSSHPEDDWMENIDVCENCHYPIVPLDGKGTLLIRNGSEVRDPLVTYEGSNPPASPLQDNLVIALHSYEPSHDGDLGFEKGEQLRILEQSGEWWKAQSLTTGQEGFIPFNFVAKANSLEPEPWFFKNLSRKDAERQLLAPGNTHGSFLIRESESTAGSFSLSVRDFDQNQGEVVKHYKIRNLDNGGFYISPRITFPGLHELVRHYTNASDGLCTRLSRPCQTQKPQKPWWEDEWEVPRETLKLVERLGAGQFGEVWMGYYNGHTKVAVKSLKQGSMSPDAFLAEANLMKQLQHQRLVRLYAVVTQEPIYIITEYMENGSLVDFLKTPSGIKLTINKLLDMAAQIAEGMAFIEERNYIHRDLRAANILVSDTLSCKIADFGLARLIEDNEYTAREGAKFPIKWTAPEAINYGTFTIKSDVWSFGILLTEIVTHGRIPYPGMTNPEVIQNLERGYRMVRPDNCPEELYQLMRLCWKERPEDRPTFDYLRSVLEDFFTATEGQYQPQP

SMILES | IC50 [1] [nM] | IC50 [2] [nM] | IC50 [3] [nM] | IC50 [4] [nM] | IC50 [5] [nM]
O=C(CNc1cc(Cl)cc(Cl)c1)N1CC2CC(Nc3ncnc4[nH]ccc34)C1C2 (centres unmarked) [Compound 174] | > 10000 | > 10000 | > 10000 | > 10000 | < 100
O=C([C@H](Nc1cc(Cl)cc(Cl)c1)C1CC1)N1CCC2CCN(c3ncnc4[nH]ccc34)C2C1 (some centres unmarked) [Compound 176] | 100 to 999 | 1000 to 10000 | 1000 to 10000 | 1000 to 10000 | < 100
CN(c1ncnc2[nH]ncc12)C1CCCCN(C(=O)CNc2cc(Cl)cc(Cl)c2)C1 (centres unmarked) [Compound 167] | 1000 to 10000 | 1000 to 10000 | > 10000 | 100 to 999 | –
O=C(CNc1cc(F)cc(Cl)c1)N1CCCC(Nc2ncnc3[nH]ccc23)C1C(F)(F)F (centres unmarked) [Compound 23] | – | 1000 to 10000 | – | 100 to 999 | < 100
O=C(CNc1cc(Cl)cc(Cl)c1)N1CCC[C@@H](Nc2ncnc3[nH]ncc23)C1 [Compound 222] | 1000 to 10000 | 1000 to 10000 | > 10000 | 100 to 999 | < 100
O=C(CNc1ccccc1S(=O)(=O)N1CCCCC1)N1CCC2CCN(c3ncnc4[nH]ccc34)C2C1 (centres unmarked) [Compound 113] | > 10000 | 1000 to 10000 | 1000 to 10000 | 1000 to 10000 | –
O=C(CNc1cc(Cl)cc(Cl)c1)N1CCC[C@@H](Nc2ncnc3[nH]ccc23)C1 [Compound 220] | > 10000 | 1000 to 10000 | > 10000 | 100 to 999 | –
CC1C(Nc2ncnc3[nH]ncc23)CCCN1C(=O)CNc1ccccc1S(=O)(=O)N1CCCCC1 (centres unmarked) [Compound 67] | – | 1000 to 10000 | – | 100 to 999 | < 100
CN(c1ncnc2[nH]ccc12)[C@@H]1CCCN(C(=O)CNc2cc(Cl)cc(Cl)c2)C1 [Compound 209] | 100 to 999 | 100 to 999 | 1000 to 10000 | 100 to 999 | –
CN(c1ncnc2[nH]ccc12)C1CCCCN(C(=O)CNc2cc(Cl)cc(Cl)c2)C1 (centres unmarked) [Compound 143] | > 10000 | > 10000 | > 10000 | > 10000 | –
O=C(CNc1cc(Cl)cc(Cl)c1)N1Cc2ccccc2C(Nc2ncnc3[nH]ccc23)C1 (centres unmarked) [Compound 96] | 100 to 999 | 100 to 999 | > 10000 | 100 to 999 | < 100

The remaining lines, values ahead:

IC50 [1] [nM] | IC50 [2] [nM] | IC50 [3] [nM] | IC50 [4] [nM] | IC50 [5] [nM] | SMILES
– | 100 to 999 | – | < 100 | – | C[C@@H]1[C@H](Nc2ncnc3[nH]ccc23)CCCN1C(=O)CNc1cc(Cl)cc(Cl)c1 [Compound 89]
100 to 999 | 100 to 999 | 1000 to 10000 | 100 to 999 | – | CC1C(Nc2ncnc3[nH]ccc23)CCCN1C(=O)CNc1cc(Cl)cc(Cl)c1 (centres unmarked) [Compound 105]
– | 100 to 999 | – | 100 to 999 | < 100 | C[C@@H]1[C@H](Nc2ncnc3[nH]ncc23)CCCN1C(=O)CNc1cc(F)cc(Cl)c1 [Compound 25]
100 to 999 | 100 to 999 | 1000 to 10000 | 100 to 999 | < 100 | CCC[C@@H](Nc1cc(F)cc(Cl)c1)C(=O)N1CCC2CCN(c3ncnc4[nH]ccc34)C2C1 (some centres unmarked) [Compound 100]
> 10000 | 100 to 999 | 100 to 999 | 100 to 999 | – | O=C(CNc1ccccc1S(=O)(=O)c1ccccc1)N1CCC2CCN(c3ncnc4[nH]ccc34)C2C1 (centres unmarked) [Compound 114]
– | 100 to 999 | – | < 100 | < 100 | C[C@@H]1[C@H](Nc2ncnc3[nH]ncc23)CCCN1C(=O)CNc1cc(Cl)cc(Cl)c1 [Compound 29]
100 to 999 | 100 to 999 | 1000 to 10000 | 100 to 999 | < 100 | CC[C@@H](Nc1cc(Cl)cc(Cl)c1)C(=O)N1CCC2CCN(c3ncnc4[nH]ccc34)C2C1 (some centres unmarked) [Compound 99]
1000 to 10000 | 100 to 999 | 1000 to 10000 | 100 to 999 | < 100 | CC(C)CN(CC(C)C)S(=O)(=O)c1ccccc1NCC(=O)N1CCC[C@@H](Nc2ncnc3[nH]ncc23)C1 [Compound 217]
– | < 100 | < 100 | < 100 | < 100 | NC(=O)c1cnc2[nH]ccc2c1N[C@H]1CCCN(C(=O)CNc2cc(Cl)cc(Cl)c2)[C@H]1C(F)(F)F [Compound 226]
100 to 999 | < 100 | 100 to 999 | < 100 | – | O=C(CNc1cc(Cl)cc(Cl)c1)N1CCC2CCN(c3ncnc4[nH]ccc34)C2C1 (centres unmarked) [Compound 183]
100 to 999 | 100 to 999 | 1000 to 10000 | 100 to 999 | < 100 | O=C(CNc1cc(Cl)cc(Cl)c1)N1CCC2CCN(c3ncnc4[nH]ncc34)C2C1 (centres unmarked) [Compound 192]
100 to 999 | 100 to 999 | 100 to 999 | < 100 | – | O=C(CNc1cc(Cl)cc(Cl)c1)N1CC[C@@H]2CCN(c3ncnc4[nH]ccc34)[C@@H]2C1 [Compound 124]
100 to 999 | < 100 | 100 to 999 | < 100 | – | O=C(CNc1cc(Cl)cc(Cl)c1)N1CC[C@H]2CCN(c3ncnc4[nH]ccc34)[C@H]2C1 [Compound 123]
